Source: patent publication US3994882A, “Nitrofuran derivatives, process for the preparation thereof and compositions containing same as active ingredient” (Kabushiki Kaisha Ueno Seiyaku Oyo Kenkyujo, priority 1974, dated 1976)
≈ marks a conversion by molar mass, not a printed value.

How the values were obtained:
Bacillus Subtilis PCI219 = experiment: Minimum growth inhibiting concentration (Table 1); assay type: cell-based; conditions: TSBI, pH 7.2, 37° C., 48 hours
Experimental: (§1) For information, the minimum growth inhibiting concentration is a value
(§2) concerning microorganisms cultivated in TSBI the pH of which was adjusted
(§3) to 7.2, each bacteria being incubated at 37° C. for 48 hours.

[1] = system: Diplococcus pneumoniae DP-1; experiment: Minimum growth inhibiting concentration (Table 1); assay type: cell-based; conditions: Streptococcus pneumoniae, DP1, TSBI, pH 7.2, 37° C., 48 hours
Experimental: as §1, §2, §3

Escherichia coli O-55 = experiment: Minimum growth inhibiting concentration (Table 1); assay type: cell-based; conditions: O55, TSBI, pH 7.2, 37° C., 48 hours
Experimental: as §1, §2, §3

[2] = system: Klebsiella pneumoniae ST-101; experiment: Minimum growth inhibiting concentration (Table 1); assay type: cell-based; conditions: ST101, TSBI, pH 7.2, 37° C., 48 hours
Experimental: as §1, §2, §3

Proteus vulgaris HX-19 = experiment: Minimum growth inhibiting concentration (Table 1); assay type: cell-based; conditions: HX19, TSBI, pH 7.2, 37° C., 48 hours
Experimental: as §1, §2, §3

[3] = system: Pseudomonas aeruguinosa 347; experiment: Minimum growth inhibiting concentration (Table 1); assay type: cell-based; conditions: TSBI, pH 7.2, 37° C., 48 hours
Experimental: as §1, §2, §3

[4] = system: Salmonella enteritidis 1891; experiment: Minimum growth inhibiting concentration (Table 1); assay type: cell-based; conditions: Salmonella enterica, TSBI, pH 7.2, 37° C., 48 hours
Experimental: as §1, §2, §3

[5] = system: Salmonella pullorum chuyu 114; experiment: Minimum growth inhibiting concentration (Table 1); assay type: cell-based; conditions: Salmonella enterica, TSBI, pH 7.2, 37° C., 48 hours
Experimental: as §1, §2, §3

[6] = system: Staphylococcus aureus 209P; experiment: Minimum growth inhibiting concentration (Table 1); assay type: cell-based; conditions: TSBI, pH 7.2, 37° C., 48 hours
Experimental: as §1, §2, §3

[7] = system: Streptococcus hemolyticus A 089; experiment: Minimum growth inhibiting concentration (Table 1); assay type: cell-based; conditions: Streptococcus pyogenes, A089, TSBI, pH 7.2, 37° C., 48 hours
Experimental: as §1, §2, §3

Aeromonas liquefaciens = experiment: Minimum growth inhibiting concentration, microorganisms that infect fish (Table 3); assay type: cell-based; conditions: Aeromonas hydrophila, 0.5% NaCl added ordinary agar, 25° C., 24 hours
Experimental: (§4) The minimum growth inhibiting concentrations were measured under indentical contitions as in the case of Table 1. The culture temperature was 25° C., the culture being carried out for 48 hours in the asterisked case and 24 hours in the other cases.

Aeromonas punctata = experiment: as above; assay type: cell-based; conditions: Aeromonas caviae, 0.5% NaCl added ordinary agar, 25° C., 24 hours
Experimental: as §4

Aeromonas salmonicida = experiment: as above; assay type: cell-based; conditions: 0.5% NaCl added ordinary agar, 25° C., 24 hours
Experimental: as §4

[8] = system: Chondrococcus columnaris Ek-23; experiment: as above; assay type: cell-based; conditions: Flavobacterium columnare, EK23, 0.5% NaCl added TSB agar, 25° C., 48 hours (asterisked)
Experimental: as §4

Pasteurella piricida SU = experiment: as above; assay type: cell-based; conditions: 2% NaCl added brain-heat infusion agar, 25° C., 24 hours
Experimental: as §4

Vibrio anguillarum K-3 = experiment: as above; assay type: cell-based; conditions: K3, 3% NaCl added ordinary agar, 25° C., 24 hours
Experimental: as §4

Vibrio panulirus Vp-M-1 = experiment: as above; assay type: cell-based; conditions: VPM1, 3% NaCl added ordinary agar, 25° C., 24 hours
Experimental: as §4

[9] = system: Vibrio piscium var. Japonicus; experiment: as above; assay type: cell-based; conditions: Vibrio anguillarum, 0.5% NaCl added ordinary agar, 25° C., 24 hours
Experimental: as §4

Vibrio sp. Sp-1 = experiment: as above; assay type: cell-based; conditions: SP.SP1, 3% NaCl added ordinary agar, 25° C., 24 hours
Experimental: as §4

[10] = Acute toxicity in mice (Table 4); conditions: mouse, in vivo, po
Experimental: Next, in Table 4 are shown the curative actions (ED50 mg/Kg body wt.) and acute toxicities (LD50 mg/kg body wt.) of the typical nitrofuran derivatives of the present invention when used with infected mice.

[11] = system: Salmonella pullorum NIAH 5159; experiment: Effectiveness in preventing infection by Salmonella pullorum in chicks (Table 6); assay type: in vivo; conditions: 7 days, chicks with germs isolated / chicks tested
Experimental: A culture liquid obtained by cultivating Salmonella pullorum NIAH 5159 in a YCCB culture medium for 20 hours at 37° C. was injected into the cloaca of 2-day-old chicks at the rate of 0.2 ml per chick. Nitrofuran derivatives in total amounts indicated below were then mixed with the feed, and the so mixed feed was fed to the chicks for 7 days. The chicks were then sacrificed, and the liver and/or spleen were homogenized, following which the product was cultivated for 48 hours at 37° C. in a YCCB culture medium in customary manner. The expression, "rate of germ isolation" used in the table has the following meaning. For instance, the value 4/10 means the germs were isolated from four out of the ten chicks submitted to the test.

[12] = system: Staphlococcus aureus Kawanabe II; experiment: Curative effects on Staphlomycosis of fowl (Table 7); assay type: in vivo; conditions: two weeks, chicks died / chicks tested
Experimental: A culture liquid obtained by cultivation of Staphlococcus aureus Kawanabe II for 20 hours at 37° C. in a heart infusion culture medium was injected intravenously into 3-week-old chicks at the rate of 0.2 ml per chick. Nitrofuran derivatives mixed in amounts indicated below in the feeds were then fed these chicks for two weeks. In the table the expression, "death rate" has the following meaning. For instance, the value 3/9 denotes that three out of the nine chicks submitted to the test died.

vibroid ulcers = experiment: Medicinal bath of young yellowtail with disease seeming to be vibroid ulcers; assay type: in vivo; conditions: of 30 fishes; 10 ppm seawater bath 10 minutes; reared further 20 days; untreated group 3 survivors
Experimental: In raising young yellowtail of a body length about 10-15 cm, since a disease seeming to be vibroid ulcers started to appear, 90 of the fishes were collected and divided into three groups. The first group of 30 fishes were reared as heretofore practiced with no change. On the other hand, the second and third groups of 30 fishes were placed for 10 minutes in respectively medicinal baths containing seawater solutions of 10 ppm of the compound of Example 1 ##SPC40##
and the compound of Example 9 ##SPC41##
following which the respective groups of fishes were returned to normal seawater where they were reared for a further 20 days. The number of fishes surviving in the case of the first group was three fishes, whereas in the case of the second and third groups, the numbers of fishes surviving were 26 and 25 fishes, respectively.

Structure (SMILES)	MIC (Bacillus Subtilis PCI219)	MIC [1]	MIC (Escherichia coli O-55)	MIC [2]	MIC (Proteus vulgaris HX-19)	MIC [3]	MIC [4]	MIC [5]	MIC [6]	MIC [7]	MIC (Aeromonas liquefaciens)	MIC (Aeromonas punctata)	MIC (Aeromonas salmonicida)	MIC [8]	MIC (Pasteurella piricida SU)	MIC (Vibrio anguillarum K-3)	MIC (Vibrio panulirus Vp-M-1)	MIC [9]	MIC (Vibrio sp. Sp-1)	LD50 [10]	also measured
O=C(NCCO)c1ccc(C=Cc2ccc([N+](=O)[O-])o2)cc1 [Example 1, 2-Para-[2'-(5"-nitro-2"-furyl)-vinyl]-benzoylaminoethanol]	< 0.19 µg/mL	0.78 µg/mL (≈ 2.58 µM)	3.13 µg/mL (≈ 10.4 µM)	3.13 µg/mL (≈ 10.4 µM)	3.13 µg/mL (≈ 10.4 µM)	12.5 µg/mL (≈ 41.4 µM)	1.56 µg/mL (≈ 5.16 µM)	3.13 µg/mL (≈ 10.4 µM)	0.78 µg/mL (≈ 2.58 µM)	< 0.19 µg/mL	0.062 µg/mL (≈ 0.205 µM)	0.125 µg/mL (≈ 0.414 µM)	0.018 µg/mL (≈ 0.0595 µM)	0.0037 µg/mL (≈ 0.0122 µM)	0.037 µg/mL (≈ 0.122 µM)	0.018 µg/mL (≈ 0.0595 µM)	0.009 µg/mL (≈ 0.0298 µM)	< 0.015 µg/mL	0.018 µg/mL (≈ 0.0595 µM)	1500 mg/kg	Rate of germ isolation ([11]; 50 ppm in feed): 4/10; Rate of germ isolation ([11]; 100 ppm in feed): 4/10; Rate of germ isolation ([11]; 200 ppm in feed): 3/10; Rate of germ isolation ([11]; 400 ppm in feed): 2/10; Rate of germ isolation ([11]; 800 ppm in feed): 0/10; Death rate ([12]; 50 ppm in feed): 3/9; Death rate ([12]; 100 ppm in feed): 2/9; Death rate ([12]; 200 ppm in feed): 2/9; Death rate ([12]; 400 ppm in feed): 2/9; Death rate ([12]; 800 ppm in feed): 1/9; Number of fishes surviving (vibroid ulcers): 26 fishes
O=C(NCC(O)CO)c1ccc(C=Cc2ccc([N+](=O)[O-])o2)cc1 (centres unmarked) [Example 9, 3-Para-[2'-(5"-nitro-2"-furyl)-vinyl]-benzoylamino-1,2-propanediol]	< 0.19 µg/mL	< 0.19 µg/mL	3.13 µg/mL (≈ 9.42 µM)	6.25 µg/mL (≈ 18.8 µM)	6.25 µg/mL (≈ 18.8 µM)	> 25 µg/mL	1.56 µg/mL (≈ 4.69 µM)	6.25 µg/mL (≈ 18.8 µM)	0.78 µg/mL (≈ 2.35 µM)	< 0.19 µg/mL	0.037 µg/mL (≈ 0.111 µM)	0.25 µg/mL (≈ 0.752 µM)	0.018 µg/mL (≈ 0.0542 µM)	0.0037 µg/mL (≈ 0.0111 µM)	0.037 µg/mL (≈ 0.111 µM)	0.037 µg/mL (≈ 0.111 µM)	0.009 µg/mL (≈ 0.0271 µM)	< 0.015 µg/mL	0.018 µg/mL (≈ 0.0542 µM)	> 2000 mg/kg	Rate of germ isolation ([11]; 50 ppm in feed): 4/10; Rate of germ isolation ([11]; 100 ppm in feed): 4/10; Rate of germ isolation ([11]; 200 ppm in feed): 3/10; Rate of germ isolation ([11]; 400 ppm in feed): 2/10; Rate of germ isolation ([11]; 800 ppm in feed): 1/10; Death rate ([12]; 50 ppm in feed): 3/9; Death rate ([12]; 100 ppm in feed): 2/9; Death rate ([12]; 200 ppm in feed): 2/9; Death rate ([12]; 400 ppm in feed): 2/9; Death rate ([12]; 800 ppm in feed): 2/9; Number of fishes surviving (vibroid ulcers): 25 fishes
